Where no end group is shown, it is not given here.

Data set [1] deals with rats inoculated intracisternally with Haemophilus influenzae type b lipooligosaccharide. Kind of data set: Rat meningitis model (H. influenzae LOS). In kind it is in vivo. The procedure:
The experiments were performed according to established protocols (Wispelway et al., 1988, J. Clin. Invest., 82: 1339-1346). Purified Haemophilus influenzae type b strain DL42 lipooligosaccharide (LOS) was prepared for inoculation by sonication for 30 minutes, dilution to the desired concentration (20 ng/50 μl) in normal saline or PBS, and sonication for an additional 15 to 30 minutes just prior to use.
Briefly, anesthetized female Wistar rats were placed under a micromanipulator and inoculated intracisternally with a 25 gauge needle. After removal of 50 μl of CSF (without visible blood contamination), rats were inoculated intracisternally with 50 μl (20 ng) of LOS using a 1 ml syringe with a 25 gauge needle. Ten to fifteen minutes after inoculation with LOS, the rats were treated by intravenous administration of the test substance: a solution of an FHA peptide in PBS, a solution of a control peptide in PBS, or an equal volume of PBS alone.
Three hours after LOS inoculation, 5 μCi of ^125 I-radiolabelled albumin in 50 μl normal saline was administered intravenously. One hour later, CSF was collected via intracisternal puncture and blood samples were collected via intracardiac puncture. CSF leukocytosis was determined by manually counting white blood cells using a hemacytometer, and blood-brain barrier permeability was determined as the percent of radioactivity in whole blood that was present in the CSF. Blood samples were obtained immediately prior to inoculation, immediately prior to treatment, and at 4 hours post-inoculation for determination of peripheral white blood cell concentrations.

Another data set concerns the target T1, CD11b/CD18 (Homo sapiens, UniProt P05107+P11215).
T1 construct: endogenous in cells; host or cells: human monocyte-derived macrophages from buffy coats
Kind of data set: Downmodulation of CD11b/CD18 on macrophages. The following applies: wells coated with peptides 0.5 mM or mAb IB4 50 μg/ml. In kind it is cell-based. How it is done: Human monocytes were purified from buffy coats on Percoll gradients and cultured in 12.5% human serum in Teflon beakers. Macrophages were harvested from Teflon beakers after 6-8 days and suspended in HAP buffer. Terasaki wells were coated with 5 μl of peptides (0.5 mM) or anti-CD18 mAb IB4 (50 μg/ml). Control wells were coated with HAP. After 2 hours of incubation at RT, 5 μl of macrophages (5×10^5 /ml HAP) were added and allowed to spread for 45 mins. at 37° C. […] IgM-coated erythrocytes in buffer served as negative control. After washing, the number of erythrocytes bound per 100 leukocytes (adherence index) was quantitated visually under an inverted microscope.

Another data set deals with THP-1 cells. Kind of data set: Generation of Factor Xa by monocytes. In kind it is cell-based. The note with it: peptides 0.5 mM. How it is done: Factor Xa generation was determined by a modification of the method of Miletich et al. (1978), J. Biol. Chem. 253: 6908-6916. THP-1 cells (ATCC; 3×10^7 /ml) resuspended in RPMI 1640 (Bio Whittaker, Walkersville, Md.) were incubated with 100 μM ADP (Sigma), 2.5 mM CaCl2, 1 or 5 μg/ml Factor X (Hematologic Technologies Inc.) and 0.5 mM peptides at room temperature. After 20 minutes, 100 μl of the reaction mixture was transferred to 37° C. and supplemented with 100 μl of bovine factor VII- and Factor X-deficient plasma (Sigma). Coagulation was initiated by adding 100 μl of 25 mM CaCl2 and the clotting time was determined. Factor Xa procoagulant activity (ng/ml) was calculated by means of a standard curve constructed by serial concentrations of Factor Xa (Hematologic Technologies Inc.) from 50 to 250 ng/ml.

Another data set has as its system Human neutrophils. Nature of the data set: Binding of 125I-Factor X to neutrophils. The following applies: read-out: IC50 of inhibition of 125I-Factor X binding. The procedure:
Human Factor X (Sigma or Hematologic Technologies Inc.) was labeled with ^125 I using Iodogen (Pierce Chemical Co.) Human neutrophils were isolated from heparinized blood according to the manufacturer's specification using Neutrophil Isolation Medium (Cardinal Associates, Santa Fe, N.M.) and washed three times with 5 mM EDTA-phosphate-buffered saline (PBS), pH 7.2, at 4° C. To eliminate platelet contamination,neutrophils were incubated with autologous serum containing 5 mM EDTA for 30 mins. at 37° C., washed three times with ice-cold PBS, pH 7.2, and resuspended in RPMI 1640 tissue culture medium (Whittaker M. A. Bioproducts, Walkersville, Md.) at 4° C. Binding of ^125 I-Factor X to neutrophils was measured based on a method described by Altieri et al. (1991) Science 254: 1200-1202. Briefly, 200 μl of neutrophils (1.5×10^7 /ml) were supplemented with 17.5 μl of 50 mM CaCl2, stimulated with 3.5 μl of 100 μM NH2 -formyl-Met-Leu-Phe (Sigma), and mixed with 30 μl of 10.3 μg/ml ^125 I-Factor X and 100 μl of 1.75 mM of peptide. Buffer alone and a peptide of scrambled sequence served as controls in each of the 3 experiments. After incubation for 20 mins. at room temperature, neutrophil-bound ^125 I-Factor X was separated from unbound ^125 I-Factor X by centrifugation of 300 μl aliquots through 50 μl of a mixture of Hi phenyl silicone oil DC 550 and methyl silicone oil DC 200 5:1 (Nye Inc. Specialty Lubricants, New Bedford, Mass.) at 12,000×g for 2 mins. Aliquots of the supernatant (cell free ^125 I-Factor X) and the cell pellet (cell bound ^125 I-Factor X) were counted in a gamma-counter. Nonspecific binding (~50,000 cpm) was determined by adding a 100 fold excess of unlabeled Factor X, and subtracted from total radioactivity (~500,000 cpm for controls).

For data set [2] the following is noted: 50% rabbit plasma at 37° C.
Description: To determine the stability of the FHA II peptide, the unmodified or the acetylated-amidated peptide were incubated in 50% rabbit plasma at 37° C.

T1 sequence (P05107 23-769, other chains not shown): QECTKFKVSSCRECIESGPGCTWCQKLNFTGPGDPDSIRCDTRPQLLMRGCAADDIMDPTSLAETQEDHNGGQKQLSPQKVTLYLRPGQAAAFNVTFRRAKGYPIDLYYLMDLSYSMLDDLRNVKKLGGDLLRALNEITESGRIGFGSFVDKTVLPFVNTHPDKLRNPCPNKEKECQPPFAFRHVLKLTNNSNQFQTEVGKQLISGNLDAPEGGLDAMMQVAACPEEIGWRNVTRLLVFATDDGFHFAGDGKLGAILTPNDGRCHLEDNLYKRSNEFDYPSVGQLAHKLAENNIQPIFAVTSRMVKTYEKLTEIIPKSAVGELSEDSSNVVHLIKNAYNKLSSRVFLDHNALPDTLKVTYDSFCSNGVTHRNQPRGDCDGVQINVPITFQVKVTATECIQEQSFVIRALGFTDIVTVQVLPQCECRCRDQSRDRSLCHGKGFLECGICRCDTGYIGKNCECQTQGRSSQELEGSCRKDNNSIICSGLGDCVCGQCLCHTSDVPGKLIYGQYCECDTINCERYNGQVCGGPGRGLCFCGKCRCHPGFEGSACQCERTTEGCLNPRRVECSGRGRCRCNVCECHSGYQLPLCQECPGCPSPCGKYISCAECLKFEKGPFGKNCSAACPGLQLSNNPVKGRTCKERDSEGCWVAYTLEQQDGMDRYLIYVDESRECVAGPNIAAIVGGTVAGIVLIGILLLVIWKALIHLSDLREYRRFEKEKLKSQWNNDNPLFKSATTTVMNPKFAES

As to RGDPHQGVLAQGDIIMDAKG [FHA Ca], in data set [1] (peripheral white blood cells), the neutropenia entry is recorded as “No neutropenia was observed”. In addition, on CD11b/CD18, the “reduction of binding of C3bi-coated erythrocytes to macrophages” value (“reduction” for short) came out at 61±7%.

For the compound “Ac-VEEDTKG-NH2 [scrambled ac/am FHA II, VEEDTKG, reference compound]”, in data set [1] (Experiment #3, 600 nmol), the BBB permeability turned out to be 7.74 ± 3.59%. Also, the Leukocytosis in data set [1] (Experiment #3, 600 nmol i.v., CSF 4 hours after LOS) was 14,287 ± 10,199 cells/ml.

Take RADPHQGVLAQGDIIMDAKG [FHA Cb]: at CD11b/CD18, the “reduction” value was “no significant effect”.

For AADPHQGVLAQGDIIMDAKG [FHA Cc], the “reduction” value on CD11b/CD18 is “no significant effect”.

In turn, `CC(=O)N[C@@H](CC(C)C)C(=O)N[C@@H](CC(C)C)C(=O)N[C@H](C=O)CCCNC(=N)N` [Leupeptin, reference compound] gave a Clotting time with THP-1 cells of 63.0 ± 4.0 s. Also, the “Factor Xa” value in the data set on THP-1 cells (from standard curve) is under 10.0 ng/mL.

Regarding GTLLLRNDALTENGTVTISA [FHA Cd], the “reduction” value at CD11b/CD18 is reported as “no significant effect”.

ETKEVDG [FHA II, ETKEVDG]: in the data set with Human neutrophils, the IC50 was found to be 10 µM. In addition, the “time in which concentration decreased by half” value in data set [2] fell in the range of 4 to 6 h.

For the compound “GYDTKQEDG [Factor X II, reference compound]”, in the data set with Human neutrophils, the IC50 was 500 µM.

One may read the IC50 as the concentration that gives 50% inhibition.
